In PubChem BioAssay (NCI):
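Cultured in 96-well plates, cells were exposed to test compound for 48 hours across five concentrations. At the TGI there is no net growth.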

Experiments:
Experiment in all cases: growth of human tumour cells (NCI), 48 h
[1] = test system: 786-0 renal
[2] = test system: A498 renal
[3] = test system: A549 NSCLC
[4] = test system: ACHN renal
[5] = test system: BT-549 breast
[6] = test system: CAKI-1 renal
[7] = test system: CCRF-CEM leukemia
[8] = test system: COLO 205 colon
[9] = test system: DU-145 prostate
[10] = test system: EKVX NSCLC
[11] = test system: HCT-116 colon
[12] = test system: HCT-15 colon
[13] = test system: HL-60(TB) leukemia
[14] = test system: HOP-62 NSCLC
[15] = test system: HOP-92 NSCLC
[16] = test system: HS 578T breast
[17] = test system: HT29 colon
[18] = test system: IGROV1 ovarian
[19] = test system: K-562 leukemia
[20] = test system: KM12 colon
[21] = test system: LOX IMVI melanoma
[22] = test system: M14 melanoma
[23] = test system: MALME-3M melanoma
[24] = test system: MCF7 breast
[25] = test system: MDA-MB-231 breast
[26] = test system: MDA-MB-435
[27] = test system: MDA-N
[28] = test system: MOLT-4 leukemia
[29] = test system: NCI-H226 lung
[30] = test system: NCI-H23 lung
[31] = test system: NCI-H460 lung
[32] = test system: NCI-H522 lung
[33] = test system: NCI/ADR-RES ovarian
[34] = test system: OVCAR-3 ovarian
[35] = test system: OVCAR-4 ovarian
[36] = test system: OVCAR-5 ovarian
[37] = test system: OVCAR-8 ovarian
[38] = test system: PC-3 prostate
[39] = test system: RPMI-8226 leukemia
[40] = test system: RXF 393 renal
[41] = test system: SF-268 CNS
[42] = test system: SF-295 CNS
[43] = test system: SF-539 CNS
[44] = test system: SK-MEL-2 melanoma
[45] = test system: SK-MEL-28 melanoma
[46] = test system: SK-MEL-5 melanoma
[47] = test system: SK-OV-3 ovarian
[48] = test system: SN12C renal
[49] = test system: SNB-19 CNS
[50] = test system: SNB-75 CNS
[51] = test system: SR leukemia
[52] = test system: SW-620 colon
[53] = test system: T-47D breast
[54] = test system: TK-10 renal
[55] = test system: U251 CNS
[56] = test system: UACC-257 melanoma
[57] = test system: UACC-62 melanoma
[58] = test system: UO-31 renal
[59] = test system: HCC-2998 colon
[60] = test system: DLD-1 colon
[61] = test system: DMS 114 small cell lung
[62] = test system: KM20L2 colon
[63] = test system: LXFL 529 NSCLC
[64] = test system: M19-MEL melanoma
[65] = test system: XF 498 CNS

Measured: TGI

N#Cc1ccc(OC(=O)c2ccc(N=C(N)N)cc2)cc1
54.8 µM: [7]
not listed: [59] | [60] | [61] | [62] | [63] | [64] | [65]
> 100 µM: all other assays above

Cc1ccc(S(=O)(=O)Nc2nc3ccccc3c(=O)n2C2CCCCC2)cc1
not listed: [23] | [60] | [61] | [62] | [63] | [64] | [65]
> 100 µM: all other assays above

CCOc1cc2c(cnc3c4cc(OC)c(OC)cc4ccc23)cc1OC
not listed: [5] | [9] | [13] | [15] | [16] | [21] | [24] | [25] | [26] | [27] | [29] | [33] | [38] | [40] | [51] | [53]
> 100 µM: all other assays above

CCOP(=O)(CC1CC(O)(CNc2cc(Cl)nc(N)n2)C1)OCC (configuration not stated)
not listed: [22] | [49] | [60] | [61] | [62] | [63] | [64] | [65]
> 100 µM: all other assays above
